Here are results for two compounds from paper doi:10.1101/695973v1 (biorxiv, 2019).

Where two headings read alike, the source gives them in different places.

In assay [1] the test system is β-lactamase Mm3. Conditions: 20 mM sodium phosphate, 0.2 M NaCl, pH 7.4, 30°C; Hill equation, nH 2.36.
Assay [2] deals with β-lactamase Mm3. As to the kind of experiment: spectrophotometric hydrolysis at […] nm, initial rates, Michaelis-Menten fit. Particulars: 20 mM sodium phosphate, 0.2 M NaCl, pH 7.4, 30°C. It is filed as biochemical, uncultured bacterium.

Regarding `CC1(C)S[C@@H]2[C@H](NC(=O)[C@H](N)c3ccccc3)C(=O)N2[C@H]1C(=O)O` [ampicillin], in the assay on β-lactamase Mm3 [1], the Km is 271 ± 16.4 µM.

Consider `CC1(C)S[C@@H]2[C@H](NC(=O)C(C(=O)O)c3ccccc3)C(=O)N2[C@H]1C(=O)O` (some centres unmarked) [carbenicillin], for which the Km in the assay with β-lactamase Mm3 [2] is 400 ± 42.7 µM.
